Tests used:
Ehrlich cancer cells = assay: PGE in cancer cells and ascites of mouse transplanted with Ehrlich cancer cells; type: in vivo, female ICR-JCL mouse; settings: 200 mg/kg/day i.p., 5 days
Experimental: To groups of female ICR-JCL mouse after 5 weeks of her birth, Ehrlich cancer cells were intraperitoneally transplanted at a rate of 1×10^6 cells/animal and one of the present substances, Specimen No. 7 was administered intraperitoneally to the mice every day from the next day of transplantation for 5 days at a rate of 200 mg/kg/day. The mice were sacrificed with ether on the 6th day of transplantation, and the ascites were collected. After adding tetrasodium ethylenediamminetetraacetate with 1% by weight of aspirin into the ascites, it was centrifugated for 10 min at 1500 rpm and a temperature of 4° C. to separate the cancer cells and the supernatant liquid. The supernatant liquid was further centrifugated at 4° C. and 3000 rpm for 15 min. The separated cancer cells was washed with Hank's solution, and was subjected to centrifugation 5 times at 800 rpm for each 5 min to remove impurities such as erythrocytes, etc. The thus purified cancer cells of 1×10^8 in number were homogenized at 0° C. after addition of 7 ml of methanol, and the homogenate was filtered with filter paper. After adding 14 ml of chloroform to the filtrate and mixing, the mixture was left for 30 min at a temperature of 4° C. […] The content of PGE in the solution and in the supernatant liquid of the ascites was determined by ^3 H-ProstaglandinE Radioimmunoassay Kit. […]

[1] = tested on: sarcoma induced by methylcholanthrene; 6-keto PGF1α; assay: Level of 6-keto PGF1α in plasma of sarcoma-bearing rats; type: in vivo, spontaneous hypertensive rats (SHR); settings: 500 mg/kg/day i.p., 6 days
Experimental: Cells of sarcoma induced by methylcholanthrene were transplanted on the back of a group of spontaneous hypertensive rats (SHR) subcutaneously at a rate of 1×10^6 cells/animal, and while feeding the rats, the present substance, Specimen No. 7, was daily administered intraperitoneally for consecutive 6 days from after 24 hours of the transplantation at a rate of 500 mg/kg/day. After 2 weeks of the ending of administration, whole blood was collected to obtain a fraction of plasma. The ether-extract of the plasma was separated by thin layer chromatography and after converting the extract into a methyloximesilyl derivative, the variation of the level 6-keto PGF1α in the extract was examined by gas-chromatography and masspectroscopy.

Ehrlich's cancer cell = assay: PGE in Ehrlich tumour and tumour weight (oral); type: in vivo, female C57BL/6 mouse; settings: 1 g/kg/day oral
Experimental: Ehrlich's cancer cell were transplanted subcutaneously to groups of female C57BL/6 mouse after 8 weeks of her birth and while feeding the mice, the present substance, Specimen No. 7, was orally administered to each mouse every day at a rate of 1 g/kg/day. On 7th or 14th day of the transplantation, the mice were sacrificed with ether to extirpated the tumour. The tumour was treated by the same procedures as in Example 11 to determine the content of PGE therein. The concentration of PGE in the tumour was larger in the animal transplanted with the cells and administered with the present substance than in the control to which the same cells were transplanted but the present substance was not administered. Further it is observed that the content of PGE decreased in both groups as the time passed, and the rate of decrease was smaller in the group transplanted and administered than in the control group transplanted but not administered. These facts give the information that the present substance participates to the metabolism of PGE.

MH-134 tumor = assay: Preventing the metastasis of a transplanted tumour; type: in vivo, C3H/He mouse; settings: for Number of metastatic lesion: not administered 4.5
Experimental: Cells of MH-134 tumor were transplanted to a C3 H/He mouse from its caudal vein at a rate of 2×10^6 cells/animal. The present substance, Specimen No. 7, was administered to the mouse respectively, 6, 3 and one hours before, and 1, 3 and 6 hours after the transplantation once at a rate of 1000 mg/kg forcibly p.o.
The mouse was sacrificed on 14th day of the transplantation to extirpate the lungs to examine the number of the metastatic lesion.

[2] = tested on: spontaneously hypertensive (SHR) male rats; assay: Effect of indomethacin on the hypotensive action; type: in vivo, rat (SHR); settings: 100 mg/kg p.o.; indomethacin 2.5 mg/kg before and after
Excerpt: It is known that PGs are produced from arachidonic acid, and cyclooxygenase participates in the conversion of arachidonic acid to PGG2, that indomethacin inactivates the above-mentioned cyclooxygenase and further that the […] of PGs is completely stopped by the administration of indomethacin.
Accordingly, the transition of blood pressure of the spontaneously hypertensive (SHR) male rats 30 to 40 weeks after birth was compared in both cases (1) where only the present substance was administered at a rate of 100 mg/kg and (2) where indomethacin was administered 2 times at a rate of 2.5 mg/kg/time before and after the administration of the present substance. The present substance, Specimen No. 7, was dissolved into distilled water or dispersed in an aqueous 2% solution of carboxymethylcellulose, and forcibly administered orally. Indomethacin was dispersed in an aqueous 2% solution of carboxymethylcellulose, and the dispersion was also forcibly administered orally, one hour before and after the administration of the present substance.

[3] = tested on: human dinuclear leukemia J-111 strain; assay: PGs in culture medium of human leukemia cells; type: cell-based; settings: 50, 500 or 5,000 μg/ml, 7 days
Experimental: To each 10 ml of a culture medium prepared by adding 10% of bovine foetal serum and one of the present substance, Specimen No. 7, at a concentration of 50, 500 or 5,000 μg/ml to Eagle's culture medium and placed in a polystyrene flask of 75 cm^2 in bottom surface, 5×10^5 cultured cells of human dinuclear leukemia J-111 strain were inoculated and cultured at 37° C. under a mixed atmosphere of 5% by volume of gaseous […] and 95% by volume of air for 7 days. During the cultivation, the culture medium was replaced on the second day and the fourth day with respective fresh ones, and each spent medium was subjected to centrifugation as soon as possible at a temperature of 4° C. at 1,500 rpm to obtain each supernatant liquid of cultured medium. The content of PGE and PGF2-α in each supernatant liquid was determined by ^3 H-Prostaglandin E Radioimmunoassay Kit and ^3 H-Prostaglandin F Radioimmunoassay Kit (manufactured by Clinical assay Co. U.S.A.).

For `O=C(O)c1ccc(NC2OC[C@@H](O)[C@H](O)[C@H]2O)cc1` (stereo partly drawn) [Specimen No. 7, Sodium p-aminobenzoate-N--D-xyloside], the “Content of PGE in supernatant liquid of ascites” value (Ehrlich cancer cells; control 0.26) was 0.12 ng, the “Content of PGE in 10^8 cells” value (Ehrlich cancer cells; control 2.36) was 3.06 ng and the “level of 6-keto PGF1 in the blood of cancer-bearing rat (FIG. 14)” value [1] was “almost same as in normal rat”. For the same molecule, the Weight of tumour (Ehrlich's cancer cell; 7th day, control 0.09) was 0.08 g, the “Content of PGE in the tumour” value (Ehrlich's cancer cell; 7th day, control 2.59) was 2.80 ng/g and the Weight of tumour (Ehrlich's cancer cell; 14th day, control 0.84) was 0.67 g. For the same molecule, the “Content of PGE in the tumour” value (Ehrlich's cancer cell; 14th day, control 1.16) was 1.65 ng/g, the “Rate of positive metastasis” value (MH-134 tumor; 1000 mg/kg p.o. 1 hour after, printed 7/10) was 70% and the “Rate of positive metastasis” value (MH-134 tumor; 1000 mg/kg p.o. 1 hour before, printed 7/9) was 77.8%. The “Rate of positive metastasis” value (MH-134 tumor; 1000 mg/kg p.o. 3 hours after, printed 9/10) was 90%, the “Rate of positive metastasis” value (MH-134 tumor; 1000 mg/kg p.o. 3 hours before, printed 8/9) was 88.9% and the “Rate of positive metastasis” value (MH-134 tumor; 1000 mg/kg p.o. 6 hours after, printed 10/10) was 100%. For the same molecule, the “Rate of positive metastasis” value (MH-134 tumor; 1000 mg/kg p.o. 6 hours before transplantation, printed 10/10) was 100%, the “Number of metastatic lesion” value (MH-134 tumor; 1 hour after) was 2.6 and the “Number of metastatic lesion” value (MH-134 tumor; 1 hour before) was 2.2. The “Number of metastatic lesion” value (MH-134 tumor; 3 hours after) was 3.0, the “Number of metastatic lesion” value (MH-134 tumor; 3 hours before) was 1.9 and the “Number of metastatic lesion” value (MH-134 tumor; 6 hours after) was 3.5. For the same molecule, the “Number of metastatic lesion” value (MH-134 tumor; 6 hours before) was 2.3, the “hypotensive effect with indomethacin (FIG. 9)” value [2] was “disappeared” and the “rate of decrease of PGE (FIG. 13)” value [3] was “the rate of decrease of PGE was raised as the concentration of the present substance was increased”. For the same molecule, the “rate of increase of PGF2-α (FIG. 12)” value [3] was “the rate of increase of PGF2-α was reduced as the concentration of the present substance was increased”.

Source: patent publication US4440757A, “Pharmaceutical composition comprising derivative of aminobenzoic acid for regulating prostaglandin” (priority 1978, dated 1984)
